Laboratory results from the CheMixHub ionic liquid set.

Experiment: xn = mol fraction of the nth substance listed

CCCCCCCCCCCCCCCC[n+]1ccccc1.[Cl-] + O
Details | electrical conductivity [S/m]
293.15 K, 100 kPa, x1 = 3.6e-06 | 0.0028
293.15 K, 100 kPa, x1 = 7.21e-06 | 0.005
293.15 K, 100 kPa, x1 = 1.442e-05 | 0.0091
298.15 K, 100 kPa, x1 = 3.6e-06 | 0.0028
298.15 K, 100 kPa, x1 = 7.21e-06 | 0.0051
298.15 K, 100 kPa, x1 = 1.081e-05 | 0.0076
298.15 K, 100 kPa, x1 = 1.442e-05 | 0.0098
298.15 K, 100 kPa, x1 = 9.009e-05 | 0.02
303.15 K, 100 kPa, x1 = 3.6e-06 | 0.003
303.15 K, 100 kPa, x1 = 7.21e-06 | 0.0057
303.15 K, 100 kPa, x1 = 1.081e-05 | 0.0083
303.15 K, 100 kPa, x1 = 9.009e-05 | 0.021
308.15 K, 100 kPa, x1 = 3.6e-06 | 0.0034
308.15 K, 100 kPa, x1 = 7.21e-06 | 0.0065
308.15 K, 100 kPa, x1 = 1.081e-05 | 0.0095
308.15 K, 101 kPa, x1 = 5.4e-07 | 0.000222
308.15 K, 101 kPa, x1 = 9e-07 | 0.00029
308.15 K, 101 kPa, x1 = 1.62e-06 | 0.0004
308.15 K, 101 kPa, x1 = 2.34e-06 | 0.000465
308.15 K, 101 kPa, x1 = 2.88e-06 | 0.000581
308.15 K, 101 kPa, x1 = 3.78e-06 | 0.000705
308.15 K, 101 kPa, x1 = 4.5e-06 | 0.000794
308.15 K, 101 kPa, x1 = 5.59e-06 | 0.000937
308.15 K, 101 kPa, x1 = 6.85e-06 | 0.00106
308.15 K, 101 kPa, x1 = 7.93e-06 | 0.001222
308.15 K, 101 kPa, x1 = 9.01e-06 | 0.001438
308.15 K, 101 kPa, x1 = 1.009e-05 | 0.00159
308.15 K, 101 kPa, x1 = 1.117e-05 | 0.001701
308.15 K, 101 kPa, x1 = 1.333e-05 | 0.00209
308.15 K, 101 kPa, x1 = 1.55e-05 | 0.00219
308.15 K, 101 kPa, x1 = 1.766e-05 | 0.00237
308.15 K, 101 kPa, x1 = 1.982e-05 | 0.00248
308.15 K, 101 kPa, x1 = 2.18e-05 | 0.00259
308.15 K, 101 kPa, x1 = 2.397e-05 | 0.00264
308.15 K, 101 kPa, x1 = 2.595e-05 | 0.00278
308.15 K, 101 kPa, x1 = 3.009e-05 | 0.00297
308.15 K, 101 kPa, x1 = 3.406e-05 | 0.00314
308.15 K, 101 kPa, x1 = 3.802e-05 | 0.00328
308.15 K, 101 kPa, x1 = 4.18e-05 | 0.00342
308.15 K, 101 kPa, x1 = 4.559e-05 | 0.00356
308.15 K, 101 kPa, x1 = 4.919e-05 | 0.00369
308.15 K, 101 kPa, x1 = 5.099e-05 | 0.00375
308.15 K, 101 kPa, x1 = 6e-05 | 0.00403
308.15 K, 101 kPa, x1 = 6.847e-05 | 0.00432
308.15 K, 101 kPa, x1 = 7.658e-05 | 0.00454
308.15 K, 101 kPa, x1 = 8.433e-05 | 0.00477
308.15 K, 101 kPa, x1 = 9.189e-05 | 0.00497
308.15 K, 101 kPa, x1 = 9.91e-05 | 0.00516
308.15 K, 101 kPa, x1 = 0.000106 | 0.00533
308.15 K, 101 kPa, x1 = 0.0001126 | 0.0055
313.15 K, 100 kPa, x1 = 9.009e-05 | 0.023

CCCC(=O)O + CC(CC(C)(C)C)CP(=O)([O-])CC(C)CC(C)(C)C.CCCCCCCCCCCCCC[P+](CCCCCC)(CCCCCC)CCCCCC + O
100 kPa
Details | viscosity [mPa·s]
298 K, x2 = 0.09014, x1 = 0.601 | 53
298 K, x2 = 0.09759, x1 = 0.6041 | 54
298 K, x2 = 0.1129, x1 = 0.5867 | 83
310 K, x2 = 0.08641, x1 = 0.594 | 30
310 K, x2 = 0.1138, x1 = 0.593 | 47
310 K, x2 = 0.1346, x1 = 0.5734 | 58
310 K, x2 = 0.1366, x1 = 0.07313 | 82
310 K, x2 = 0.1673, x1 = 0.1732 | 84
310 K, x2 = 0.1882, x1 = 0.4901 | 87
310 K, x2 = 0.1908, x1 = 0.2923 | 90
310 K, x2 = 0.1962, x1 = 0.4196 | 91
318 K, x2 = 0.08808, x1 = 0.5881 | 24
318 K, x2 = 0.1141, x1 = 0.5826 | 35
318 K, x2 = 0.1336, x1 = 0.5507 | 44

CCCCCCCCCCCCCCCC[N+](C)(C)C.[Br-] + O
Details | viscosity [mPa·s]
298.15 K, 100 kPa, x1 = 7.21e-06 | 0.896
298.15 K, 100 kPa, x1 = 2.162e-05 | 0.9
298.15 K, 100 kPa, x1 = 7.207e-05 | 0.8804
298.15 K, 101 kPa, x1 = 1.46e-05 | 0.905
298.15 K, 101 kPa, x1 = 1.64e-05 | 0.9071
298.15 K, 101 kPa, x1 = 1.802e-05 | 0.9069
298.15 K, 101 kPa, x1 = 3.622e-05 | 0.9141
298.15 K, 101 kPa, x1 = 5.496e-05 | 0.9181
298.15 K, 101 kPa, x1 = 6.937e-05 | 0.9203
298.15 K, 101 kPa, x1 = 9.225e-05 | 0.9267
298.15 K, 101 kPa, x1 = 0.0001067 | 0.933
298.15 K, 101 kPa, x1 = 0.0001193 | 0.9362
298.15 K, 101 kPa, x1 = 0.0001429 | 0.9436
298.15 K, 101 kPa, x1 = 0.0001602 | 0.9481
298.15 K, 101 kPa, x1 = 0.0001802 | 0.9511
298.15 K, 101 kPa, x1 = 0.0002057 | 0.9556
298.15 K, 101 kPa, x1 = 0.000211 | 0.9553
298.15 K, 101 kPa, x1 = 0.000245 | 0.9662
298.15 K, 101 kPa, x1 = 0.0002573 | 0.9651
298.15 K, 101 kPa, x1 = 0.0002724 | 0.9675
303.15 K, 100 kPa, x1 = 7.207e-05 | 0.7984
308.15 K, 100 kPa, x1 = 7.21e-06 | 0.742
308.15 K, 100 kPa, x1 = 2.162e-05 | 0.745
308.15 K, 100 kPa, x1 = 7.207e-05 | 0.7583

298.15 K, 101 kPa, frequency 0.001 MHz
Details | electrical conductivity [S/m]
x1 = 1.09e-06 | 0.001
x1 = 2.34e-06 | 0.00165
x1 = 3.39e-06 | 0.00255
x1 = 4.43e-06 | 0.00305
x1 = 5.57e-06 | 0.00366
x1 = 6.72e-06 | 0.00441
x1 = 7.97e-06 | 0.00511
x1 = 8.91e-06 | 0.00577
x1 = 1.12e-05 | 0.00697
x1 = 1.213e-05 | 0.00757
x1 = 1.307e-05 | 0.00823
x1 = 1.411e-05 | 0.00873
x1 = 1.526e-05 | 0.00943
x1 = 1.63e-05 | 0.00978
x1 = 1.734e-05 | 0.0102
x1 = 1.922e-05 | 0.0105
x1 = 1.995e-05 | 0.0108
x1 = 2.172e-05 | 0.0111
x1 = 2.276e-05 | 0.0113
x1 = 2.443e-05 | 0.0115
x1 = 2.599e-05 | 0.0117
x1 = 2.734e-05 | 0.012
x1 = 2.859e-05 | 0.0122

C[N+](C)(C)CCO.O=S(=O)([N-]S(=O)(=O)C(F)(F)F)C(F)(F)F + OCCOCCOCCOCCO
Details | viscosity [mPa·s]
298.15 K, 101 kPa, x2 = 0 | 144.8

CN(C)c1ccccc1 + CCCC[n+]1ccn(C)c1.O=S(=O)([N-]S(=O)(=O)C(F)(F)F)C(F)(F)F
viscosity [mPa·s], 100 kPa
Details | 288.15 K | 293.15 K | 298.15 K | 303.15 K | 308.15 K | 313.15 K | 318.15 K | 323.15 K | 328.15 K | 333.15 K
x1 = 0.1 | 65.1 | 51.3 | 41.3 | 34 | 28.3 | 23.6 | 20.23 | 17.37 | 15.09 | 13.19
x1 = 0.2 | 52.2 | 41.4 | 33.6 | 28 | 23.4 | 19.61 | 16.9 | 14.6 | 12.74 | 11.19
x1 = 0.2993 | 40.5 | 32.4 | 26.6 | 22.26 | 18.75 | 15.88 | 13.77 | 11.97 | 10.49 | 9.29
x1 = 0.4001 | 30.4 | 24.6 | 20.44 | 17.16 | 14.66 | 12.5 | 10.93 | 9.56 | 8.44 | 7.52
x1 = 0.5005 | 21.72 | 17.79 | 15.06 | 12.73 | 10.96 | 9.44 | 8.34 | 7.36 | 6.55 | 5.86
x1 = 0.5993 | 15.08 | 12.54 | 10.77 | 9.21 | 8.02 | 7 | 6.21 | 5.53 | 4.98 | 4.49
x1 = 0.7 | 9.89 | 8.36 | 7.29 | 6.34 | 5.58 | 4.93 | 4.42 | 3.98 | 3.62 | 3.29
x1 = 0.7996 | 6.07 | 5.25 | 4.64 | 4.12 | 3.68 | 3.3 | 3 | 2.74 | 2.5 | 2.3
x1 = 0.8997 | 3.33 | 2.96 | 2.67 | 2.42 | 2.205 | 2.028 | 1.858 | 1.716 | 1.591 | 1.485
x1 = 1 | 1.536 | 1.415 | 1.302 | 1.206 | 1.123 | 1.056 | 0.981 | 0.92 | 0.865 | 0.819
